17 compounds from patent US11130769B2 (Prelude Therapeutics Incorporated, priority 2018, dated 2021) can be followed below.

Like-named read-outs stand apart in the source and are kept apart here.

The test system of one test is H929 cells. The test can be described thus: Cell viability assay (H929 10 FBS). Format: cell-based. Conditions: read-out: H929_10FBS IC50. In outline:
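ATP-based luminescence (CellTiter-Glo or ATPlite 1 Step, 30-60 min at RT) gauged viability of H929 myeloma cells after 24 h compound treatment at 37 °C. Cells plated at 4000 per well in 10% FBS RPMI 1640 supplemented with pyruvate, HEPES and glucose.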

Another test has as its target MCL-1 (Homo sapiens (Human), UniProt Q07820). Kind of test: Cell free Mcl-1:Bim affinity assay (fluorescence polarization competition). In kind it is binding. The conditions noted are these: 15 nM MCL-1, 5 nM FITC-Bim, 1 hour at room temperature; class symbols; read-out: BIM_Ki. In outline: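 Fluorescence polarization competition: 10-point 3-fold compound dilutions displaced 5 nM FITC-Bim from 15 nM MCL-1 over 1 h at room temperature. Ki was derived from the fitted IC50 using the Nikolovska-Coleska equation, with percent inhibition normalized to DMSO and positive controls.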
Background: Fluorescence polarisation rises when a labelled molecule tumbles more slowly, as on binding a larger partner.

Setting [1] is: Homo sapiens, NCI-H929, 24 hours.

MCL-1, sequence (Q07820 whole entry): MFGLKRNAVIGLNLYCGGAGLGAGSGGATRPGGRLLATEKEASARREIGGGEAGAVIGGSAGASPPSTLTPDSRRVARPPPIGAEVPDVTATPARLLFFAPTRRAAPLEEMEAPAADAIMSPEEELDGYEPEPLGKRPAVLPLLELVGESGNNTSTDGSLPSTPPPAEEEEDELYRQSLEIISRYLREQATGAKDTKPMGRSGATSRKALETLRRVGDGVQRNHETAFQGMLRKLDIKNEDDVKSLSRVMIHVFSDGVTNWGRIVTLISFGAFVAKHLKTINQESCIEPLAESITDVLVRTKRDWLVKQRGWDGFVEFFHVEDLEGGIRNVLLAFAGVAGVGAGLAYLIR

A word on the IC50: it is the concentration at which inhibition is half-maximal. Consider `CCO[C@@H]1CCN(C(=O)O[C@H]2/C=C/COC(C)(C)C(=O)NS(=O)(=O)c3ccc4c(c3)N(C[C@@H]3CC[C@H]32)C[C@@]2(CCCc3cc(Cl)ccc32)CO4)C1` [Example 59, [(3R,6R,7S,8E,22S)-6′-Chloro-12,12-dimethyl-13,15,15-trioxo-spiro[11,20-dioxa-15-thia-1,14-diazatetracyclo[14.7.2.03,6.019,24]pentacosa-8,16,18,24-tetraene-22,1′-tetralin]-7-yl] (3R)-3-ethoxypyrrolidine-1-carboxylate], for which the IC50 with H929 cells (setting [1]) is less than 500 nM. In addition, the Ki on MCL-1 was less than 1 nM.
Take `COCCN1CCCN(C(=O)O[C@H]2/C=C/COC(C)(C)C(=O)NS(=O)(=O)c3ccc4c(c3)N(C[C@@H]3CC[C@H]32)C[C@@]2(CCCc3cc(Cl)ccc32)CO4)CC1` [Example 60, [(3R,6R,7S,8E,22S)-6′-Chloro-12,12-dimethyl-13,15,15-trioxo-spiro[11,20-dioxa-15-thia-1,14-diazatetracyclo[14.7.2.03,6.019,24]pentacosa-8,16,18,24-tetraene-22,1′-tetralin]-7-yl] 4-(2-methoxyethyl)-1,4-diazepane-1-carboxylate]: in the test on H929 cells (setting [1]), the IC50 was less than 500 nM. In addition, the Ki on MCL-1 was less than 1 nM.
The corresponding values for `CC1(C)OC/C=C/[C@H](OC(=O)N[C@H]2CCOC2)[C@@H]2CC[C@H]2CN2C[C@@]3(CCCc4cc(Cl)ccc43)COc3ccc(cc32)S(=O)(=O)NC1=O` [Example 61, [(3R,6R,7S,8E,22S)-6′-Chloro-12,12-dimethyl-13,15,15-trioxo-spiro[11,20-dioxa-15-thia-1,14-diazatetracyclo[14.7.2.03,6.019,24]pentacosa-8,16,18,24-tetraene-22,1′-tetralin]-7-yl] N-[(3S)-tetrahydrofuran-3-yl]carbamate] are less than 500 nM and less than 1 nM.
Taken in the same sequence, the figures for `CC1(C)OC/C=C/[C@H](OC(=O)N[C@@H]2CCOC2)[C@@H]2CC[C@H]2CN2C[C@@]3(CCCc4cc(Cl)ccc43)COc3ccc(cc32)S(=O)(=O)NC1=O` [Example 62, [(3R,6R,7S,8E,22S)-6′-Chloro-12,12-dimethyl-13,15,15-trioxo-spiro[11,20-dioxa-15-thia-1,14-diazatetracyclo[14.7.2.03,6.019,24]pentacosa-8,16,18,24-tetraene-22,1′-tetralin]-7-yl] N-[(3R)-tetrahydrofuran-3-yl]carbamate] were less than 500 nM and less than 1 nM.
Taken in the same sequence, the figures for `CON(C)C(=O)O[C@H]1/C=C/COC(C)(C)C(=O)NS(=O)(=O)c2ccc3c(c2)N(C[C@@H]2CC[C@H]21)C[C@@]1(CCCc2cc(Cl)ccc21)CO3` [Example 63, [(3R,6R,7S,8E,22S)-6′-Chloro-12,12-dimethyl-13,15,15-trioxo-spiro[11,20-dioxa-15-thia-1,14-diazatetracyclo[14.7.2.03,6.019,24]pentacosa-8,16,18,24-tetraene-22,1′-tetralin]-7-yl] N-methoxy-N-methyl-carbamate] were less than 500 nM and less than 1 nM.
With `CN(C(=O)O[C@H]1/C=C/COC(C)(C)C(=O)NS(=O)(=O)c2ccc3c(c2)N(C[C@@H]2CC[C@H]21)C[C@@]1(CCCc2cc(Cl)ccc21)CO3)[C@@H]1CCOC1` [Example 64, [(3R,6R,7S,8E,22S)-6′-Chloro-12,12-dimethyl-13,15,15-trioxo-spiro[11,20-dioxa-15-thia-1,14-diazatetracyclo[14.7.2.03,6.019,24]pentacosa-8,16,18,24-tetraene-22,1′-tetralin]-7-yl] N-methyl-N-[(3R)-tetrahydrofuran-3-yl]carbamate], the half-inhibitory concentration (IC50) in the test with H929 cells (setting [1]) was less than 500 nM. Besides, the Ki on MCL-1 is less than 1 nM.
The corresponding values for `CN(C)CCO[C@H]1/C=C/COC(C)(C)C(=O)NS(=O)(=O)c2ccc3c(c2)N(C[C@@H]2CC[C@H]21)C[C@@]1(CCCc2cc(Cl)ccc21)CO3` [Example 65, (3R,6R,7S,8E,22S)-6′-Chloro-7-[2-(dimethylamino)ethoxy]-12,12-dimethyl-15,15-dioxo-spiro[11,20-dioxa-15-thia-1,14-diazatetracyclo[14.7.2.03,6.019,24]pentacosa-8,16,18,24-tetraene-22,1′-tetralin]-13-one] are less than 500 nM and less than 1 nM.
Taken in the same sequence, the figures for `CC1(C)OC/C=C/[C@H](OCCN2CCCC2)[C@@H]2CC[C@H]2CN2C[C@@]3(CCCc4cc(Cl)ccc43)COc3ccc(cc32)S(=O)(=O)NC1=O` [Example 66, (3R,6R,7S,8E,22S)-6′-Chloro-12,12-dimethyl-15,15-dioxo-7-(2-pyrrolidin-1-ylethoxy)spiro[11,20-dioxa-15-thia-1,14-diazatetracyclo[14.7.2.03,6.019,24]pentacosa-8,16,18,24-tetraene-22,1′-tetralin]-13-one] were less than 500 nM and less than 1 nM.
Taken in the same sequence, the figures for `COC(=O)N1C/C=C/[C@@H](OC)[C@@H]2CC[C@H]2CN2C[C@@]3(CCCc4cc(Cl)ccc43)COc3ccc(cc32)S(=O)(=O)NC(=O)C2(CCC2)C1` [Example 67, (3R,6R,7R,8E,23S)-6′-Chloro-7-methoxy-11-methoxycarbonyl-13,13-(1,3-propylene)-16,16-dioxo-spiro[21-oxa-16-thia-1,11,15-triazatetracyclo[15.7.2.03,6.020,25]hexacosa[8,17(26),18,20(25)]tetraene-23,1′-tetralin]-14-one] were greater than 1000 nM and 1 to 100 nM.
Consider `CO[C@@H]1/C=C/CNCC(C)(C)C(=O)NS(=O)(=O)c2ccc3c(c2)N(C[C@@H]2CC[C@H]21)C[C@@]1(CCCc2cc(Cl)ccc21)CO3` [Example 68, (3R,6R,7R,8E,23S)-6′-Chloro-7-methoxy-13,13-dimethyl-16,16-dioxo-spiro[21-oxa-16-thia-1,11,15-triazatetracyclo[15.7.2.03,6.020,25]hexacosa[8,17(26),18,20(25)]tetraene-23,1′-tetralin]-14-one], for which the IC50 in the test on H929 cells (setting [1]) was greater than 1000 nM. Further, the Ki at MCL-1 was in the range of 1 to 100 nM.
For the compound `CO[C@@H]1/C=C/CCC2(CC2)C(=O)NS(=O)(=O)c2ccc3c(c2)N(C[C@@H]2CC[C@H]21)C[C@@]1(CCCc2cc(Cl)ccc21)CO3` [Example 69, (3R,6R,7R,8E,22S)-6′-Chloro-7-methoxy-12,12-ethylene-15,15-dioxo-spiro[[20]oxa[15]thia-1,14-diazatetracyclo[14.7.2.03,6.019,24]pentacosa[8,16(25),17,19(24)]tetraene-22,1′-tetralin]-13-one], the IC50 in the test with H929 cells (24 hours) was greater than 1000 nM. The Ki at MCL-1 was 1 to 100 nM.
As for `CO[C@@H]1/C=C\CCC2(CC2)C(=O)NS(=O)(=O)c2ccc3c(c2)N(C[C@@H]2CC[C@H]21)C[C@@]1(CCCc2cc(Cl)ccc21)CO3` [Example 70, (3R,6R,7R,8Z,22S)-6′-chloro-7-methoxy-12,12-ethylene-15,15-dioxo-spiro[20-oxa-15-thia-1,14-diazatetracyclo[14.7.2.03,6.019,24]pentacosa[8,16(25),17,19(24)]tetraene-22,1′-tetralin]-13-one], the IC50 in the test with H929 cells (24 hours) is greater than 1000 nM. Besides, the Ki on MCL-1 lay within 1 to 100 nM.
Consider `CO[C@@H]1/C=C/C[C@H](C)CC(=O)NS(=O)(=O)c2ccc3c(c2)N(C[C@@H]2CC[C@H]21)C[C@@]1(CCCc2cc(Cl)ccc21)CO3` [Example 71, (3R,6R,7R,8E,11S,22S)-6′-Chloro-7-methoxy-11-methyl-15,15-dioxo-spiro[20-oxa-15-thia-1,14-diazatetracyclo[14.7.2.03,6.019,24]pentacosa-8,16(25),17,19(24)-tetraene-22,1′-tetralin]-13-one], for which the IC50 with H929 cells (setting [1]) is greater than 1000 nM. Besides, on MCL-1, the Ki lay within 1 to 100 nM.
Take `CO[C@@H]1/C=C/CC[C@@H](C)C(=O)NS(=O)(=O)c2ccc3c(c2)N(C[C@@H]2CC[C@H]21)C[C@@]1(CCCc2cc(Cl)ccc21)CO3` [Example 72, (3R,6R,7R,8E,12R,22S)-6′-Chloro-7-methoxy-12-methyl-15,15-dioxo-spiro[20-oxa-15-thia-1,14-diazatetracyclo[14.7.2.03,6.019,24]pentacosa-8,16(25),17,19(24)-tetraene-22,1′-tetralin]-13-one]: the IC50 in the test on H929 cells (setting [1]) was greater than 1000 nM. The Ki on MCL-1 lay in the range of 1 to 100 nM.
Taken in the same sequence, the figures for `CO[C@@H]1/C=C/CCCCC(=O)NS(=O)(=O)c2ccc3c(c2)N(C[C@@H]2CC[C@H]21)C[C@@]1(CCCc2cc(Cl)ccc21)CO3` [Example 73, (3R,6R,7R,8E,23S)-6′-Chloro-7-methoxy-16,16-dioxo-spiro[21-oxa-16-thia-1,15-diazatetracyclo[15.7.2.03,6.020,25]hexacosa-8,17,19,25-tetraene-23,1′-tetralin]-14-one] were greater than 1000 nM and 1 to 100 nM.
The corresponding values for `CO[C@@H]1/C=C/CCC(=O)NS(=O)(=O)c2ccc3c(c2)N(C[C@@H]2CC[C@H]21)C[C@@]1(CCCc2cc(Cl)ccc21)CO3` [Example 74, (3R,6R,7R,8E,21S)-6′-Chloro-7-methoxy-14,14-dioxo-spiro[19-oxa-14-thia-1,13-diazatetracyclo[13.7.2.03,6.018,23]tetracosa-8,15,17,23-tetraene-21,1′-tetralin]-12-one] are greater than 1000 nM and less than 1 nM.
In the case of `CO[C@H]1/C=C/CCC(=O)NS(=O)(=O)c2ccc3c(c2)N(C[C@@H]2CC[C@H]21)C[C@@]1(CCCc2cc(Cl)ccc21)CO3` [Example 75, (3R,6R,7S,8E,21S)-6′-Chloro-7-methoxy-14,14-dioxo-spiro[19-oxa-14-thia-1,13-diazatetracyclo[13.7.2.0˜3,6.0˜18,23]tetracosa-8,15,17,23-tetraene-21,1′-tetralin]-12-one], the IC50 in the test with H929 cells (setting [1]) is greater than 1000 nM. In addition, on MCL-1, the Ki was in the range of 1 to 100 nM.
